{
  "source": "paper PMC10184313",
  "about": "“Inhibition of Thiamine Diphosphate-Dependent Enzymes by Triazole-Based Thiamine Analogues” (ACS Medicinal Chemistry Letters, 2023)",
  "key": {"E. coli OGDHc E1": {"target": "T1, E. coli OGDHc E1 (Escherichia coli, UniProt P0AFG3)", "T1 sequence (P0AFG3 1-933)": "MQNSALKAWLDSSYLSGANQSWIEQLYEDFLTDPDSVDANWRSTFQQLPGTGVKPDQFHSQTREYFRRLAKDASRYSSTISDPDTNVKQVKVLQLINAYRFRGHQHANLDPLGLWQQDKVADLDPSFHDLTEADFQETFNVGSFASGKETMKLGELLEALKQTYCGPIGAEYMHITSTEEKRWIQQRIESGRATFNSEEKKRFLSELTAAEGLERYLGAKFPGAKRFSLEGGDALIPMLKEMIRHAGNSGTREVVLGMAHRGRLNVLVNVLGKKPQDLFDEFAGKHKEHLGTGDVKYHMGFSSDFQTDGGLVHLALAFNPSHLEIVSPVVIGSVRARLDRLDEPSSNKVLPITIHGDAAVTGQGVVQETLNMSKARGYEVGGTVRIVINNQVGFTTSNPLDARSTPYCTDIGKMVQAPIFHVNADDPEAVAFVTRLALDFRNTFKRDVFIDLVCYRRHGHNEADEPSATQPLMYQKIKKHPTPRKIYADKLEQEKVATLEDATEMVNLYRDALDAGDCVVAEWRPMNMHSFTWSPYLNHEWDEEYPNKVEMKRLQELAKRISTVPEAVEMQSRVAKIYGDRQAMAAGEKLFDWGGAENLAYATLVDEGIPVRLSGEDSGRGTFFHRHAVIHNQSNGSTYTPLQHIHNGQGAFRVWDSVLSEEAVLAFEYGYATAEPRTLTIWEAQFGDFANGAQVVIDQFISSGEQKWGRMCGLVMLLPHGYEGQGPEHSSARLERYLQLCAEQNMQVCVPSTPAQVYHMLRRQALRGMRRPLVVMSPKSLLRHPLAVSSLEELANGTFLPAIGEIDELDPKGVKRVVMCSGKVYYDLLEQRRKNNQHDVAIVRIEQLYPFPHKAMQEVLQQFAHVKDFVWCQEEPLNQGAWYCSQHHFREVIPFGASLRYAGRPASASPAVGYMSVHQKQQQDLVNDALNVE", "assay": "E. coli OGDHc E1 inhibitory activity assay (DCPIP reduction)", "assay_type": "biochemical", "conditions": "E. coli OGDHc E1; read-out: KM(ThDP) OGDHc E1", "protocol": "E. coli OGDHc E1 inhibitory activity assay. E. coli OGDHc E1 was from our previous work 5 and had been donated by R. Frank. Its activity was determined by monitoring DCPIP reduction at 600 nm using a microplate reader (CLARIOstar) and conducted as described 1,2 with some modifications. The percentage inhibition of compounds against E. coli OGDHc E1 was assayed at a final concentration of 250 µM. The reaction buffer (50 mM KH 2PO4 and 2 mM MgCl 2, pH 7) contained 50 µM ThDP (or 125 µM in the competition assay), 0.5 mM DCPIP, and 6.7 mg/ml E. coli OGDHc E1. The reaction mixture was preincubated at 37 °C for 60 min, then reaction was initiated by adding α-ketoglutarate to a final concentration of 10 mM. To determine the IC 50, ThDP concentration was lowered to 30 µM, and inhibitor concentration was varied (2-1000 µM). Specific activity was calculated using the molar […]\nfor the PDHc E1 assay. […] 5 […]"}, "porcine PDHc E1": {"target": "T2, porcine PDHc E1 (Sus scrofa, UniProt P29804)", "T2 sequence (P29804 31-390)": "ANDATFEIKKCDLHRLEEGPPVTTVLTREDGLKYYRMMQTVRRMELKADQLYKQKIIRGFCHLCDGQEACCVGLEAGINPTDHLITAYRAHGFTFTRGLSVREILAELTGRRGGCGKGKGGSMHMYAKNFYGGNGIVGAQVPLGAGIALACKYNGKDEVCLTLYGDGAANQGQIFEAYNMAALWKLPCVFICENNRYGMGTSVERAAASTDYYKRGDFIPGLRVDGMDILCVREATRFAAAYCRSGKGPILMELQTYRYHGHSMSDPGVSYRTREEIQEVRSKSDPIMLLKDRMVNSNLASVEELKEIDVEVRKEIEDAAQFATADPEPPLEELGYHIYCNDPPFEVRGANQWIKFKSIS", "assay": "PDHc E1 inhibitory activity assay (DCPIP reduction)", "assay_type": "biochemical", "conditions": "porcine PDHc E1; read-out: KM(ThDP) PDHc E1", "protocol": "Enzyme assays – Methods and Results S1\nLigand efficiencies – Calculations S3 […]\nEnzyme assays (Methods and Results)\nPDHc E1 inhibitory activity assay. Porcine PDHc E1 was purchased from Sigma. Its activity was […]\ndetermined by monitoring 2,6-dichlorophenolindophenol (DCPIP) reduction at 600 nm using a […]\nmicroplate reader (CLARIOstar) and conducted as described 1,2 with some modifications. The percentage inhibition of compounds against porcine PDHc E1 was assayed at a final concentration of 250 µM. The reaction buffer (50 mM KH 2PO4 and 1 mM MgCl 2, pH 7) contained 50 µM ThDP (or 125 µM in the competition assay), 0.25 mM DCPIP, and 2 mg/ml porcine PDHc E1. The reaction mixture […]\nwas preincubated at 37 °C for 30 min, then the reaction was initiated by adding pyruvate to a final […]\nconcentration of 50 mM. To determine the half-maximal inhibitory concentration (IC 50 ), ThDP […]\nconcentration was lowered to 10 µM, and inhibitor concentration was varied (0.4-200 µM). Specific […]\nactivity was calculated using the molar extinction coefficient of DCPIP, 21 mM -1 cm-1.3 The enzyme […]\nIC50 values were calculated from non-linear regression curve fitting using GraphPad Prism."}, "[1]": {"test_system": "P. falciparum 3D7 expressing PfTPK-GFP", "parameters": "method as in PMID 23804074", "conditions": "thiamine-free culture medium; ref [15]; cited from earlier work"}, "P. falciparum strain 3D7": {"test_system": "P. falciparum strain 3D7", "conditions": "thiamine 2.97 μM vs absence of thiamine; ref [15]; cited from earlier work"}, "[2]": {"target": "PDC from Zymomonas mobilis", "parameters": "method as in PMID 19082157, PMID 20099870", "conditions": "ref [8],[24]; cited from earlier work"}, "[3]": {"substrate": "Cc1ncc(C[n+]2csc(CCO[P@](=O)(O)OP(=O)(O)O)c2C)c(N)n1", "assay": "A. viridans PO inhibitory activity assay (quinoneimine dye)", "assay_type": "biochemical, Aerococcus viridans", "conditions": "other: A. viridans PO; 37.0 °C", "protocol": "A. viridans PO inhibitory activity assay. A. viridans PO and horseradish peroxidase were purchased from Sigma. A. viridans PO activity was determined by monitoring appearance of quinoneimine dye at 550 nm using a microplate reader (CLARIOstar) and conducted as described 1 with some modifications.\nThe percentage inhibition of compounds against A. viridans PO was assayed at a final concentration of 250 µM. The reaction buffer (50 mM KH 2PO4 and 10 mM MgCl 2, pH 5.9) contained 50 µM ThDP (or 125 µM in the competition assay), 10 µM flavin adenine dinucleotide (FAD), 0.15% 4-Aminoantipyrine, 0.3% N-Ethyl-N-(2-hydroxy-3-sulfopropyl)-m-toluidine (EHSPT), 50 µg/mL horseradish peroxidase and 0.35 U/mL A. viridans PO. The reaction mixture was preincubated at 37 °C for 30 min, then reaction was initiated by adding pyruvate to a final concentration of 50 mM. To determine the IC 50, inhibitor concentration was varied (2-1000 µM) with ThDP concentration at 50 µM. 1 unit of PO activity is defined as 1 μmol of hydrogen peroxide produced per minute. The enzyme IC 50 values were calculated as described for the PDHc E1 assay. […]"}, "[4]": {"substrate": "Cc1ncc(C[n+]2csc(CCO[P@](=O)(O)OP(=O)(O)O)c2C)c(N)n1", "assay": "Z. mobilis PDC inhibitory activity assay (NADH consumption)", "assay_type": "biochemical, Zymomonas mobilis", "conditions": "pH 7.0; 37.0 °C"}},
  "data": [
    {"molecule": "Cc1ncc(C[n+]2csc(CCO[P@](=O)(O)OP(=O)(O)O)c2C)c(N)n1", "note": "[ThDP, thiamine diphosphate]", "values": [
      {"measurement": "Km", "setting": "E. coli OGDHc E1", "result": 3, "unit": "µM"},
      {"measurement": "Km", "setting": "porcine PDHc E1", "result": 0.05, "unit": "µM"}
    ]},
    {"molecule": "Cc1ncc(C[n+]2csc(CCO)c2C)c(O)n1", "note": "[Compound 7a, oxythiamine]", "values": [
      {"measurement": "fold more sensitive, parasite over-expressing TPK vs parasite bearing an empty plasmid", "setting": "[1]", "result": 70, "unit": "fold"},
      {"measurement": "fold increase of IC50 with added thiamine", "setting": "P. falciparum strain 3D7", "result": 470, "unit": "fold"}
    ]},
    {"molecule": "Cc1ncc(Cn2cc(CCOP(=O)(O)OP(=O)(O)O)nn2)c(N)n1", "note": "[Triazole-ThDP 5]", "values": [
      {"measurement": "Ki", "setting": "[2]", "result": 0.03, "unit": "nM"}
    ]},
    {"molecule": "A. viridans PO (Aerococcus viridans) (protein) MSDNKINIGLAVMKILESWGADTIYGIPSGTLSSLMDAMGEEENNVKFLQVKHEEVGAMAAVMQSKFGGNLGVTVGSGGPGASHLINGLYDAAMDNIPVVAILGSRPQRELNMDAFQELNQNPMYDHIAVYNRRVAYAEQLPKLVDEAARMAIAKRGVAVLEVPGDFAKVEIDNDQWYSSANSLRKYEPIAPAAQDIDAAVELLNNSKRPVIYAGIGTMGHGPAVQELARKIKAPVITTGKNFETFEWDFEALTGSTYRVGWKPANETILEADTVLFAGSNFPFSEVEGTFRNVDNFIQIDIDPAMLGKRHHADVAILGDAGLAIDEILNKVDAVEESAWWTANLKNIANWREYINMLETKEEGDLQFYQVYNAINNHADEDAIYSIDVGNSTQTSIRHLHMTPKNMWRTSPLFATMGIAIPGGLGAKNTYPDRQVWNIIGDGAFSMTYPDVVTNVRYNMPVINVVFSNTEYAFIKNKYEDTNKNLFGVDFTDVDYAKIAEAQGAKGFTVSRIEDMDRVMAEAVAANKAGHTVVIDCKITQDRPIPVETLKLDSKLYSEDEIKAYKERYEAANLVPFREYLEAEGLESKYIK", "values": [
      {"measurement": "Km", "setting": "[3]", "result": 5, "unit": "µM"}
    ]},
    {"molecule": "Z. mobilis PDC (Zymomonas mobilis subsp. mobilis ZM4 = ATCC 31821) (protein, made in house) MSYTVGTYLAERLVQIGLKHHFAVAGDYNLVLLDNLLLNKNMEQVYCCNELNCGFSAEGYARAKGAAAAVVTYSVGALSAFDAIGGAYAENLPVILISGAPNNNDHAAGHVLHHALGKTDYHYQLEMAKNITAAAEAIYTPEEAPAKIDHVIKTALREKKPVYLEIACNIASMPCAAPGPASALFNDEASDEASLNAAVEETLKFIANRDKVAVLVGSKLRAAGAEEAAVKFADALGGAVATMAAAKSFFPEENPHYIGTSWGEVSYPGVEKTMKEADAVIALAPVFNDYSTTGWTDIPDPKKLVLAEPRSVVVNGIRFPSVHLKDYLTRLAQKVSKKTGALDFFKSLNAGELKKAAPADPSAPLVNAEIARQVEALLTPNTTVIAETGDSWFNAQRMKLPNGARVEYEMQWGHIGWSVPAAFGYAVGAPERRNILMVGDGSFQLTAQEVAQMVRLKLPVIIFLINNYGYTIEVMIHDGPYNNIKNWDYAGLMEVFNGNGGYDSGAGKGLKAKTGGELAEAIKVALANTDGPTLIECFIGREDCTEELVKWGKRVAAANSRKPVNKLL", "values": [
      {"measurement": "Km", "setting": "[4]", "result": 0.35, "unit": "µM"}
    ]}
  ]
}
